# Measured values reported in patent publication US20040024055A1, “Pharmaceutical composition containing the exract of saururus chinensis baill useful as an anticancer agent and a process for the preparation thereof” (priority 2000, published 2004).
# Key:
# [1] = system: MCF-7; assay: MTT analysis, anticancer activity; type: cell-based, human; conditions: Homo sapiens, MCF7; MTT, 48 hr; read-out: IC50 MCF-7
# [2] = system: HT-29; assay: MTT analysis, anticancer activity; type: cell-based, human; conditions: Homo sapiens, HT-29; MTT, 48 hr
# [3] = system: LoVo; assay: MTT analysis, anticancer activity; type: cell-based, human; conditions: Homo sapiens, LoVo; MTT, 48 hr
# [4] = system: HS-746T; assay: MTT analysis, anticancer activity; type: cell-based, human; conditions: Homo sapiens, Hs746T; MTT, 48 hr
# [5] = system: A431; assay: MTT analysis, anticancer activity; type: cell-based, human; conditions: Homo sapiens, A-431, 48 hr
# [6] = system: Hep-2; assay: MTT analysis, anticancer activity; type: cell-based, human; conditions: Homo sapiens, HEp-2; MTT, 48 hr; read-out: IC50 Hep-2
# [7] = system: HT1080; assay: MTT analysis, anticancer activity; type: cell-based, human; conditions: Homo sapiens, HT-1080, 48 hr
# [8] = system: NCI-H69; assay: MTT analysis, anticancer activity; type: cell-based, human; conditions: Homo sapiens, NCI-H69; MTT, 48 hr
# [9] = system: SK-MEL-28; assay: MTT analysis, anticancer activity; type: cell-based, human; conditions: Homo sapiens, SK-MEL-28, 48 hr
# [10] = system: CPAE; assay: MTT analysis, cytotoxicity against normal cell line; type: cell-based, bovine; conditions: Bos taurus; MTT, 48 hr
# [11] = system: NIH-3T3; assay: Adhesion of cell to Laminin; type: cell-based, mouse
# Method: (§1) After treating HNP-98701 on tissue culture plate coated with the matrices, cancer cell was attached thereupon. To be specific, 50 μl/ml of […], 2 μg/ml of laminin, 2 μg/ml of collagen and 2 μg/ml of gelatin were coated on the surface of 96-well microplate (Corning Co.) per well. After solidifying for 2 hr, HNP-98701 was added to each well and treated for 1 hr. […] After treating the substances for 1 hr, cancer cell was added to each cell, and it was cultured for 3 hr. […] After culturing these cell lines for 3 hr, they were centrifuged. After collecting biomass only, it was washed with distilled water or PBS buffer solution for three times. […] Then, absorbance was measured at 560-405 nm with automatic Eliza detector (Molecular […] Corp., USA). […] Each experiment was performed for three times repeatedly.
# [12] = system: NIH-3T3; assay: Adhesion of cell to Collagen; type: cell-based, mouse
# Method: as §1
structure (smiles),measurement,setting,value
"COc1cccc2c1C(=O)c1c(O)c3c(c(O)c1C2=O)C[C@@](O)(C(=O)CO)C[C@@H]3O[C@H]1C[C@H](N)[C@H](O)[C@H](C)O1 [Adriamycin, adriamycin (doxorubicin)]",IC50,[1],0.134 µg/mL
same,IC50,[2],0.413 µg/mL
same,IC50,[3],0.0538 µg/mL
same,IC50,[4],> 50 µg/mL
same,IC50,[5],0.0675 µg/mL
same,IC50,[6],0.087 µg/mL
same,IC50,[7],0.719 µg/mL
same,IC50,[8],0.168 µg/mL
same,IC50,[9],0.75 µg/mL
same,IC50,[10],0.0208 µg/mL
same,Adhesion NIH-3T3 (%),[11]; 0.1 μg/ml,107.38%
same,Adhesion NIH-3T3 (%),[11]; 1 μg/ml,103.07%
same,Adhesion NIH-3T3 (%),[11]; 10 μg/ml,91.63%
same,Adhesion NIH-3T3 (%),[12]; 0.1 μg/ml,111.98%
same,Adhesion NIH-3T3 (%),[12]; 1 μg/ml,109.97%
same,Adhesion NIH-3T3 (%),[12]; 10 μg/ml,111.13%
